Legend:
[1] = tested on: cultured primary astrocytes; settings: cited from earlier work
synapsin I+ puncta = assay: Synapsin I immunostaining of cortex 21 days after stroke; format: in vivo, mouse; settings: for larger size of synapsin I+ puncta vs PBS-treated mice: ipsilesional motor cortex
Protocol: (§1) For immunofluorescent evaluation, sections were deparaffinized, heated three times for 5 min in a microwave oven in 0.01 M citric buffer (pH 6.0), and blocked in PBS containing 0.05% Tween-20 (Sigma) and 1% in Bovine serum albumin (BSA, Sigma) for GAP-43 and synapsin I staining, 3% normal goat serum for VGLUT1 staining or 4% normal donkey serum for GAP-43 double stainings. Goat anti-synapsin la/b antibody (1:150; Santa Cruz, sc-7379) was followed by biotin-conjugated donkey anti-goat immunoglobulin (Ig) secondary antibody (1:200; Jackson Research Lab, 705-065-147) and Cy3-conjugated streptavidin (1:100; Sigma). Guinea pig anti-VGLUT1 (1:500; Millipore, AB5905) was followed by Alexa Fluor 488 goat anti-guinea pig Ig (1:500; Molecular Probes, A11073). For single staining, mouse anti-GAP-43 antibody (1:1000; Millipore, MAB347), was followed by biotinylated rabbit anti-mouse Ig secondary antibody (1:200; Dako, E0354) and Cy3-conjugated streptavidin (1:100; Sigma). […]
(§2) Highest signal intensity single plane images of immunostained sections were obtained by laser scanning confocal microscope (LSM TCS SP2, Leica Microsystems, ×63/NA 1.3 objective for synapsin I and GAP-43; and LSM 700, Carl Zeiss for VGLUT1 ×40/NA 1.3) at 1024×1024 pixels resolution. […] Three standard sections per animal in 160 μm intervals were analysed. […]
(§3) Single-stained images were analysed using MetaMorph® software (Molecular Devices, ver. 2.8.5) to obtain number, average size and intensity of positive punctuate structures per image. […] An experimenter blinded to experimental group performed all image acquisitions and quantifications.

GAP-43+ puncta = assay: GAP-43 immunostaining of cortex 21 days after stroke; format: in vivo, mouse
Protocol: as §1, §2, §3

## C3a: Purified human C3a peptide (Complement Technologies), C3a receptor agonist, amino acid sequence SEQ ID NO: 1
[1]; cultured primary astrocytes, C3aR-dependent
  ischemia-induced upregulation of GFAP: attenuated ischemia-induced upregulation of GFAP
[1]; in vitro ischemia model
  survival of astrocytes: increased the survival of astrocytes
Synapsin I+ puncta; contralesional somatosensory cortex, P=0.030
  increase in density of synapsin I+ puncta: 20%
Synapsin I+ puncta; deep layers, P<0.0001
  larger size of synapsin I+ puncta vs PBS-treated mice: 8.1%
Synapsin I+ puncta; superficial layers, P=0.0004
  larger size of synapsin I+ puncta vs PBS-treated mice: 9.7%
GAP-43+ puncta; C3a-treated mice, P=0.012
  increase in density of GAP-43+ puncta, ipsilesional motor cortex vs corresponding contralesional region: ~50%
GAP-43+ puncta; P=0.015
  increase in density of GAP-43+ puncta, ipsilesional motor cortex vs ipsilesional cortex of PBS-treated mice: ~50%
GAP-43+ puncta; between experimental groups
  average size of GAP-43+ puncta: did not differ between the experimental groups
